Source: the supplement of paper PMC10307832

Key:
Test in all cases: relative viability (nuclei count vs DMSO), 5 days (fraction); higher = more cells survive
Alpelisib + Pemetrexed = compound: Cc1nc(NC(=O)N2CCC[C@H]2C(N)=O)sc1-c1ccnc(C(C)(C)C(F)(F)F)c1 [Alpelisib] + Nc1nc2[nH]cc(CCc3ccc(C(=O)N[C@@H](CCC(=O)O)C(=O)O)cc3)c2c(=O)[nH]1 [Pemetrexed] (partner 0.2 µM)
Outline: (§1)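 A single step with final 0.05% Triton X-100, 1% formaldehyde and 1 ug/ml Hoechst fixed the cells and stained nuclei 5 days after treatment. Lung cancer cell lines in 1536-well plates had been treated by pin tool the day after seeding with one drug alone or a fixed anchor-drug dose plus five library-drug doses (not always all listed) in √10 steps, and nuclei were counted on 4× images. Relative viability is the ratio of nuclei in treated wells to nuclei in vehicle wells, taken as the median of duplicate plates.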

Alpelisib + Olaparib = compound: Cc1nc(NC(=O)N2CCC[C@H]2C(N)=O)sc1-c1ccnc(C(C)(C)C(F)(F)F)c1 [Alpelisib] + O=C(c1cc(Cc2n[nH]c(=O)c3ccccc23)ccc1F)N1CCN(C(=O)C2CC2)CC1 [Olaparib] (partner 8 µM)
Outline: as §1

Alpelisib + Crizotinib = compound: Cc1nc(NC(=O)N2CCC[C@H]2C(N)=O)sc1-c1ccnc(C(C)(C)C(F)(F)F)c1 [Alpelisib] + C[C@@H](Oc1cc(-c2cnn(C3CCNCC3)c2)cnc1N)c1c(Cl)ccc(F)c1Cl [Crizotinib] (partner 1 µM)
Outline: as §1

Alpelisib + Pictilisib = compound: Cc1nc(NC(=O)N2CCC[C@H]2C(N)=O)sc1-c1ccnc(C(C)(C)C(F)(F)F)c1 [Alpelisib] + CS(=O)(=O)N1CCN(Cc2cc3nc(-c4cccc5[nH]ncc45)nc(N4CCOCC4)c3s2)CC1 [Pictilisib] (partner 1 µM)
Outline: as §1

Row | Cell Line | relative viability (Alpelisib + Pemetrexed; first compound 0.04 µM) | relative viability (Alpelisib + Pemetrexed; first compound 0.1265 µM) | relative viability (Alpelisib + Pemetrexed; first compound 0.4 µM) | relative viability (Alpelisib + Pemetrexed; first compound 1.265 µM) | relative viability (Alpelisib + Pemetrexed; first compound 4 µM) | relative viability (Alpelisib + Olaparib; first compound 0.04 µM) | relative viability (Alpelisib + Olaparib; first compound 0.1265 µM) | relative viability (Alpelisib + Olaparib; first compound 0.4 µM) | relative viability (Alpelisib + Olaparib; first compound 1.265 µM) | relative viability (Alpelisib + Olaparib; first compound 4 µM) | relative viability (Alpelisib + Crizotinib; first compound 0.04 µM) | relative viability (Alpelisib + Crizotinib; first compound 0.1265 µM) | relative viability (Alpelisib + Crizotinib; first compound 0.4 µM) | relative viability (Alpelisib + Crizotinib; first compound 1.265 µM) | relative viability (Alpelisib + Crizotinib; first compound 4 µM) | relative viability (Alpelisib + Pictilisib; first compound 0.04 µM) | relative viability (Alpelisib + Pictilisib; first compound 0.1265 µM) | relative viability (Alpelisib + Pictilisib; first compound 0.4 µM) | relative viability (Alpelisib + Pictilisib; first compound 1.265 µM) | relative viability (Alpelisib + Pictilisib; first compound 4 µM)
1 | NCI-H2342 | 0.843 | 0.77 | 0.694 | 0.686 | 0.447 | 0.448 | 0.429 | 0.405 | 0.367 | 0.266 | – | – | – | – | – | – | – | – | – | –
2 | SW 1573 | 0.837 | 0.871 | 0.812 | 0.741 | 0.711 | 0.431 | 0.455 | 0.406 | 0.341 | 0.311 | 0.867 | 0.784 | 0.689 | 0.649 | 0.593 | 0.498 | 0.506 | 0.557 | 0.459 | 0.352
3 | NCI-H1792 | 0.897 | 0.479 | 0.992 | 0.688 | 0.462 | 0.48 | 0.528 | 0.68 | 0.36 | 0.205 | 1.01 | 0.884 | 0.983 | 0.886 | 0.72 | 0.227 | 0.306 | 0.309 | 0.253 | 0.206
4 | LOU-NH91 | 0.398 | 0.385 | 0.486 | 0.407 | 0.404 | 0.915 | 0.87 | 0.844 | 0.65 | 0.777 | 0.743 | 0.702 | 0.758 | 0.627 | 0.59 | 0.537 | 0.504 | 0.559 | 0.52 | 0.457
5 | LC-2-ad | 0.276 | 0.276 | 0.275 | 0.267 | 0.271 | 0.718 | 0.379 | 0.78 | 0.733 | 0.651 | 0.501 | 0.316 | 0.532 | 0.351 | 0.386 | 0.443 | 0.435 | 0.434 | 0.296 | 0.415
6 | NCI-H1793 | 0.879 | 0.855 | 0.977 | 0.614 | 0.596 | 0.805 | 0.714 | 0.685 | 0.495 | 0.367 | – | – | – | – | – | 0.363 | 0.486 | 0.432 | 0.328 | 0.314
7 | NCI-H727 | – | – | – | – | – | 0.816 | 0.708 | 0.768 | 0.754 | 0.448 | 0.839 | 0.771 | 0.891 | 0.717 | 0.508 | 0.302 | 0.462 | 0.404 | 0.325 | 0.373
8 | NCI-H1395 | 0.96 | 0.747 | 0.92 | 0.718 | 0.714 | 0.45 | 0.511 | 0.472 | 0.408 | 0.451 | – | – | – | – | – | 0.493 | 0.673 | 0.663 | 0.615 | 0.492
9 | IA-LM | – | – | – | – | – | 1.03 | 0.857 | 0.776 | 0.723 | 0.667 | 0.829 | 0.643 | 1.23 | 0.718 | 0.818 | 0.265 | 0.412 | 0.432 | 0.335 | 0.327
10 | NCI-H1703 | – | – | – | – | – | 0.415 | 0.335 | 0.296 | 0.204 | 0.15 | 0.465 | 0.576 | 0.539 | 0.277 | 0.35 | 0.254 | 0.249 | 0.227 | 0.235 | 0.26
11 | NCI-H1563 | 0.857 | 0.579 | 0.662 | 0.622 | 0.567 | – | – | – | – | – | 0.877 | 0.89 | 0.753 | 0.775 | 0.707 | 0.647 | 0.734 | 0.67 | 0.613 | 0.676
12 | SW 900 | 0.513 | – | 0.476 | 0.497 | 0.405 | 0.878 | – | 0.974 | 0.914 | 0.795 | – | – | – | – | – | – | – | – | – | –
13 | EBC-1 | – | – | – | – | – | 0.682 | 0.74 | 0.655 | 0.636 | 0.587 | 0.229 | 0.177 | 0.204 | 0.199 | 0.177 | 0.417 | 0.345 | 0.412 | 0.298 | 0.349
14 | NCI-H1299 | – | – | – | – | – | 1 | 0.96 | 1.01 | 0.896 | 0.966 | 0.935 | 0.943 | 1 | 0.996 | 0.936 | 0.871 | 0.76 | 0.793 | 0.796 | 0.599
15 | NCI-H522 | 1.07 | 1.03 | 1.1 | 0.946 | 0.72 | 0.795 | 0.693 | 0.529 | 0.661 | 0.491 | – | – | – | – | – | – | – | – | – | –
16 | NCI-H1648 | 0.661 | 0.743 | 0.894 | 0.559 | 0.482 | 0.887 | 0.758 | 1.13 | 0.4 | 0.331 | – | – | – | – | – | – | – | – | – | –
17 | A549 | – | – | – | – | – | 0.301 | – | 0.434 | 0.3 | 0.23 | 0.698 | 0.707 | 0.625 | 0.389 | 0.405 | 0.464 | 0.504 | 0.529 | 0.414 | 0.338
18 | ABC-1 | – | – | – | – | – | 0.775 | 0.596 | 1.01 | 0.885 | 0.804 | 1.19 | 1.28 | 1.04 | 0.886 | 0.713 | 0.721 | 0.775 | 1.05 | 0.627 | 0.477
19 | Calu-6 | – | – | – | – | – | 0.602 | 0.529 | 0.646 | 0.615 | 0.577 | 0.772 | 0.691 | 0.911 | 0.753 | 0.559 | 0.86 | 0.945 | 1.09 | 0.819 | 0.841
